Test results as given in the supplement of paper PMC10307832.

Key:
Test in all cases: relative viability (nuclei count vs DMSO), 5 days (fraction); higher = more cells survive
[1] = compound: CCN1C(=O)C2=CC(=C(N=C2N(C1=O)C3CC3)N)C(=O)N
How it was run: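 Five library-drug doses spaced by √10 were pinned onto vehicle-anchored 1536-well plates of lung cancer cell lines that had been kept overnight at 37 °C. Cells went 5 days without medium change, then were fixed, permeabilised and Hoechst-stained together, imaged at 4× and counted by MetaXpress. Viability is the ratio of treated-well to vehicle-well nuclei, taken as a median over plates. Plates required control CV below 25% and at least one doubling.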

[2] = compound: CCN1C(=O)C2=CC(=C(N=C2N(C1=O)C3CC3)N)C(=O)N + Cc1nc(Nc2ncc(C(=O)Nc3c(C)cccc3Cl)s2)cc(N2CCN(CCO)CC2)n1 [Dasatinib] (partner 0.075 µM)
How it was run: (§1)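 Cells from lung cancer lines were seeded into 1536-well plates and, one day later, dosed by pin tool. Treatments were either a single drug or a fixed dose of an anchor drug with five library-drug doses (not always all listed) in √10 steps. After 5 days, nuclei were stained in a one-step fixation (final 0.05% Triton X-100, 1% formaldehyde, 1 ug/ml Hoechst) and counted on 4× images, and relative viability is the treated-to-vehicle nuclei ratio, as the median of duplicate plates.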

[3] = compound: CCN1C(=O)C2=CC(=C(N=C2N(C1=O)C3CC3)N)C(=O)N + Cc1nc(NC(=O)N2CCC[C@H]2C(N)=O)sc1-c1ccnc(C(C)(C)C(F)(F)F)c1 [Alpelisib] (partner 2 µM)
How it was run: as §1

[4] = compound: CCN1C(=O)C2=CC(=C(N=C2N(C1=O)C3CC3)N)C(=O)N + O=C(c1cc(Cc2n[nH]c(=O)c3ccccc23)ccc1F)N1CCN(C(=O)C2CC2)CC1 [Olaparib] (partner 8 µM)
How it was run: as §1

[5] = compound: CCN1C(=O)C2=CC(=C(N=C2N(C1=O)C3CC3)N)C(=O)N + C[C@@H](Oc1cc(-c2cnn(C3CCNCC3)c2)cnc1N)c1c(Cl)ccc(F)c1Cl [Crizotinib] (partner 1 µM)
How it was run: as §1

Cell Line	relative viability ([1]; 0.253 µM)	relative viability ([1]; 0.8 µM)	relative viability ([1]; 2.53 µM)	relative viability ([1]; 8 µM)	relative viability ([2]; first compound 0.253 µM)	relative viability ([2]; first compound 0.8 µM)	relative viability ([2]; first compound 2.53 µM)	relative viability ([2]; first compound 8 µM)	relative viability ([3]; first compound 0.253 µM)	relative viability ([3]; first compound 0.8 µM)	relative viability ([3]; first compound 2.53 µM)	relative viability ([3]; first compound 8 µM)	relative viability ([4]; first compound 0.253 µM)	relative viability ([4]; first compound 0.8 µM)	relative viability ([4]; first compound 2.53 µM)	relative viability ([4]; first compound 8 µM)	relative viability ([5]; first compound 0.253 µM)	relative viability ([5]; first compound 0.8 µM)	relative viability ([5]; first compound 2.53 µM)	relative viability ([5]; first compound 8 µM)
NCI-H1993	0.972	0.83	0.919	0.878	0.511	0.49	0.477	0.497	0.651	0.7	0.611	0.669	1.57	0.75	1.05	1.08	0.998	0.86	0.819	0.882
NCI-H2009	1.02	1	0.946	0.923	0.289	0.291	0.275	0.259	1.17	1.11	1.13	1.09	0.688	0.665	0.667	0.71	1.05	1.03	0.99	1.05
NCI-H2023	0.937	0.901	0.836	0.896	0.629	0.478	0.546	0.55	0.634	0.542	0.574	0.584	0.463	0.477	0.451	0.487	0.639	0.622	0.585	0.606
NCI-H2085	1.01	0.99	0.941	0.966	0.224	0.259	0.227	0.23	0.96	0.945	0.924	1.04	0.835	0.815	0.72	0.814	0.861	0.985	0.84	1.01
NCI-H2087	0.972	1.14	1.05	1.03	0.746	0.829	0.818	0.753	1.09	1.07	1.12	1.08	0.638	0.82	0.643	0.585	0.809	0.937	0.627	0.872
NCI-H2126	1.02	0.989	0.972	0.963	0.632	0.55	0.596	0.52	0.759	0.734	0.785	0.734	0.876	0.932	0.887	0.939	1.03	1.02	1.01	0.977
NCI-H2170	0.983	0.928	1.02	0.925	0.518	0.549	0.596	0.522	0.908	0.789	0.734	0.809	0.573	0.646	0.565	0.601	1.15	1.19	1.23	1.28
NCI-H2228	0.99	1.01	0.902	0.965	0.505	0.467	0.508	0.55	0.622	0.669	0.709	1.16	0.827	0.723	0.577	0.282	0.452	0.535	0.433	0.507
NCI-H2347	0.98	1.04	1.08	1	0.294	0.307	0.161	0.323	0.963	0.987	1.02	0.89	0.576	0.612	0.55	0.518	0.862	0.841	0.712	0.719
